# Experimental data taken from ChEMBL document CHEMBL1128620, “Relationship between cytotoxicity and DNA-binding affinity of amidine derivatives of tetrahydroquino[4,3-b][1]benzazepines and tetrahydrobenzo[k]naphthyridines” (Bioorg Med Chem Lett, 1995).
# Assays:
# Nucleic Acid = assay: DNA binding affinity was evaluated as thermal denaturation using calf thymus DNA; format: nucleic-acid assay; conditions: Bos taurus
# SK-OV-3 = assay: In vitro cytotoxicity against SKOV-3 ovarian carcinoma cells; format: functional, cell-based; conditions: Homo sapiens
# CH1 = assay: In vitro cytotoxicity against CH1 ovarian carcinoma cells; format: functional, cell-based; conditions: Homo sapiens
compound,measurement,setting,value
CC1C[C@]2(C)C(NCCCO)=Nc3ccccc3[C@@H]2N(C)c2ccccc21 (some centres undefined),ΔTm,Nucleic Acid,0.24 °C
same,IC50,SK-OV-3,32.5 µM
same,IC50,CH1,14 µM
CNc1cccc2c1C(C)C[C@]1(C)C(NCCCN)=Nc3ccccc3[C@H]21 (some centres undefined),ΔTm,Nucleic Acid,0.88 °C
same,IC50,SK-OV-3,3.1 µM
same,IC50,CH1,2 µM
CNc1cccc2c1C(C)C[C@]1(C)C(NCCCO)=Nc3ccccc3[C@H]21 (some centres undefined),ΔTm,Nucleic Acid,0.35 °C
same,IC50,SK-OV-3,12.5 µM
same,IC50,CH1,6 µM
CNc1cccc2c1C(C)C[C@]1(C)C(NCCCCN)=Nc3ccccc3[C@H]21 (some centres undefined),ΔTm,Nucleic Acid,1.14 °C
same,IC50,SK-OV-3,2.25 µM
same,IC50,CH1,3.5 µM
CCCNC1=Nc2ccccc2[C@@H]2c3cccc(NC)c3C(C)C[C@]12C (some centres undefined),ΔTm,Nucleic Acid,0.29 °C
same,IC50,SK-OV-3,12 µM
same,IC50,CH1,9 µM
CC1C[C@]2(C)C(NCCCCN)=Nc3ccccc3[C@@H]2N(C)c2ccccc21 (some centres undefined),ΔTm,Nucleic Acid,0.58 °C
same,IC50,SK-OV-3,1.6 µM
same,IC50,CH1,1.6 µM
CCCNC1=Nc2ccccc2[C@@H]2N(C)c3ccccc3C(C)C[C@]12C (some centres undefined),ΔTm,Nucleic Acid,0.17 °C
same,IC50,SK-OV-3,1.4 µM
same,IC50,CH1,10.5 µM
CC1C[C@]2(C)C(NCCCN)=Nc3ccccc3[C@@H]2N(C)c2ccccc21 (some centres undefined),ΔTm,Nucleic Acid,0.46 °C
same,IC50,SK-OV-3,3.3 µM
same,IC50,CH1,0.5 µM
